Assay results taken from ChEMBL document CHEMBL2434903, “Synthesis and biological evaluation of furopyrimidine N,O-nucleosides” (Bioorg Med Chem, 2013).
Calls of active or inactive are those of the source. No cut-off for these calls is given here.

Legend:
[1] = Cytotoxicity against African green monkey BSC1 cells assessed as change in cell morphology after 24 to 96 hrs by light microscopic analysis; assay type: cell-based, BSC-1; details: chlorocebus aethiops
[2] = Cytostatic activity against African green monkey BSC1 cells by MTT assay; assay type: ADME, cell-based, BSC-1; details: chlorocebus aethiops
[3] = Cytotoxicity against African green monkey Vero cells assessed as change in cell morphology after 24 to 96 hrs by light microscopic analysis; assay type: cell-based; details: chlorocebus sabaeus
Human alphaherpesvirus 3 = assay: Antiviral activity against Varicella-zoster virus VR-1367 infected in African green monkey BSC1 cells assessed as inhibition of virus plaque formation; assay type: functional, organism-based; details: BSC-1
[4] = Cytostatic activity against human MRC5 cells by MTT assay; assay type: ADME, cell-based
Poliovirus 1 = assay: Antiviral activity against Poliovirus 1 Sabin VR-1562 infected in African green monkey Vero cells assessed as inhibition of virus-induced cytopathogenicity; assay type: functional, cell-based; details: Human poliovirus 1 strain Sabin
Human alphaherpesvirus 1 = assay: Antiviral activity against Herpes simplex virus type 1 VR-260 infected in African green monkey Vero cells assessed as inhibition of virus-induced cytopathogenicity; assay type: functional, organism-based
[5] = Cytotoxicity against human MRC5 cells assessed as change in cell morphology after 24 to 96 hrs by light microscopic analysis; assay type: cell-based
Echovirus E9 = assay: Antiviral activity against Human echovirus 9 VR-1050 infected in African green monkey Vero cells assessed as inhibition of virus-induced cytopathogenicity; assay type: functional, organism-based
Coxsackievirus B4 = assay: Antiviral activity against Coxsackievirus B4 VR-1035 infected in African green monkey Vero cells assessed as inhibition of virus-induced cytopathogenicity; assay type: functional, organism-based
Human adenovirus 2 = assay: Antiviral activity against Adenovirus 2 VR-1080 infected in African green monkey Vero cells assessed as inhibition of virus-induced cytopathogenicity; assay type: functional, organism-based
[6] = Cytostatic activity against African green monkey Vero cells by MTT assay; assay type: ADME, cell-based; details: chlorocebus sabaeus
Human betaherpesvirus 5 = assay: Antiviral activity against Cytomegalovirus VR-538 infected in human MRC5 cells assessed as inhibition of virus-induced cytopathogenicity; assay type: functional, organism-based
Human alphaherpesvirus 2 = assay: Antiviral activity against Herpes simplex virus type 2 VR-734 infected in African green monkey Vero cells assessed as inhibition of virus-induced cytopathogenicity; assay type: functional, organism-based

SMILES	MCC [1] [µM]	CC50 [2] [µM]	MCC [3] [µM]	inhibition (Human alphaherpesvirus 3)	CC50 [4] [µM]	inhibition (Poliovirus 1)	inhibition (Human alphaherpesvirus 1)	MCC [5] [µM]	inhibition (Echovirus E9)	inhibition (Coxsackievirus B4)	inhibition (Human adenovirus 2)	CC50 [6] [µM]	inhibition (Human betaherpesvirus 5)	inhibition (Human alphaherpesvirus 2)
CCCc1cc2cn(C3CC(CO)N(C)O3)c(=O)nc2o1 (stereo not drawn)	> 250	7	> 500	inactive	31.2	inactive	inactive	> 250	inactive	inactive	inactive	31.2	inactive	inactive
Nc1nc2c(ncn2COCCO)c(=O)[nH]1	–	–	–	Active	–	Active	Active	–	Active	Active	Active	–	Active	Active
COc1ccc(-c2cc3cn(C4CC(CO)N(C)O4)c(=O)nc3o2)cc1 (racemic)	62	7	62.5	inactive	31.2	inactive	inactive	62	inactive	inactive	inactive	62.5	inactive	inactive
CCCCCc1ccc(-c2cc3cn(C4CC(CO)N(C)O4)c(=O)nc3o2)cc1 (racemic)	6	0.7	6	inactive	1.5	inactive	inactive	6	inactive	inactive	inactive	3	inactive	inactive
CN1OC(n2cc3cc(-c4ccccc4)oc3nc2=O)CC1CO (racemic)	> 250	32	125	inactive	125	inactive	inactive	> 250	inactive	inactive	inactive	125	inactive	inactive
CN1OC(n2cc3ccoc3nc2=O)CC1CO (racemic)	> 250	62	> 500	inactive	> 250	inactive	inactive	> 250	inactive	inactive	inactive	125	inactive	inactive
